The source of these data is ChEMBL document CHEMBL1201862, “PubChem BioAssay data set” (2004).

Among the test systems are 786-0; DLD-1; HOP-62; HOP-92; NCI-H522; RXF 393; SNB-78; KM12; SF-295; HCT-15; NCI-H226; U-251; COLO 205; SN12C; SK-MEL-2; SK-MEL-28.
Assay in all cases: NCI tumour cell line growth inhibition, 48 h

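A five-concentration, 48-hour dose response in 96-well plates underlies each endpoint, interpolated linearly between surrounding concentrations. The concentration for 50% growth inhibition is given as GI50.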 The source made the active and inactive calls. No stated cut-off is given here; in the data, active = GI50 up to about 1.1 µM and inactive = higher. Bounds are passed on as bounds.

On to `O=C1c2c(c(-c3ccccc3)c(-c3ccccc3)c(-c3ccccc3)c2-c2ccccc2)C(=O)N1c1cccc(Br)c1`, for which the GI50 in the assay with 786-0, in the assay with DLD-1, with HOP-62, in the assay on HOP-92, in the assay on NCI-H522 and with RXF 393 was > 100 µM (inactive) throughout. Also, the GI50 in the assay on SNB-78 was > 100 µM (inactive); in the assay on KM12 it was > 100 µM (inactive); in the assay with SF-295 it was > 100 µM (inactive); in the assay on HCT-15, > 100 µM; in the assay with NCI-H226, > 100 µM (inactive); with U-251 it was > 100 µM (inactive). Moreover, the GI50 with COLO 205, in the assay with SN12C and in the assay with SK-MEL-2 was > 100 µM (inactive) in each case.

As for `O=C(NC(=O)c1cn(CCNCCO)c(=O)[nH]c1=O)OCc1ccccc1`, the GI50 in the assay on 786-0, with DLD-1, in the assay with SK-MEL-28, in the assay with HOP-62, in the assay with HOP-92 and with NCI-H522 was > 100 µM (inactive) in each case. For the same compound, the GI50 in the assay with RXF 393 is > 100 µM (inactive); with SNB-78 it was > 100 µM (inactive); with KM12, > 100 µM (inactive); with SF-295 it was > 100 µM (inactive); with HCT-15, > 100 µM; in the assay on NCI-H226 it was > 100 µM (inactive). The GI50 in the assay on U-251, with COLO 205 and in the assay with SN12C was > 100 µM (inactive) in each case.

As to `CC(=O)Nc1ccc(-c2nnc(SCC(=O)Nc3ccc(Cl)cc3)o2)cc1`, the GI50 with 786-0 is 5.78 µM (inactive); with DLD-1, 10.4 µM (inactive); in the assay with SK-MEL-28, 13.2 µM (inactive); in the assay with HOP-62, 22.4 µM (inactive); in the assay with NCI-H522, 2.34 µM (inactive); in the assay on RXF 393, 10 µM (inactive). Besides, the GI50 in the assay with SNB-78 was 46.2 µM (inactive); with KM12, 13.7 µM (inactive); with SF-295, 11.3 µM (inactive); in the assay on HCT-15, 13.9 µM; in the assay on NCI-H226 it was 11.1 µM (inactive); in the assay with U-251 it was 3.38 µM (inactive). For the same compound, the GI50 is 17.6 µM (inactive) in the assay on COLO 205, 10.4 µM (inactive) in the assay with SN12C and 17.5 µM (inactive) in the assay with SK-MEL-2.

For the compound `CC(C)(c1ccccc1)c1ccc(Oc2ccc3c(c2)-c2nc-3nc3[nH]c(nc4nc(nc5[nH]c(n2)c2ccc(Oc6ccc(C(C)(C)c7ccccc7)cc6)cc52)-c2cc(Oc5ccc(C(C)(C)c6ccccc6)cc5)ccc2-4)c2ccc(Oc4ccc(C(C)(C)c5ccccc5)cc4)cc32)cc1`, the GI50 in the assay on 786-0 was > 100 µM (inactive); in the assay on DLD-1, > 100 µM (inactive); with SK-MEL-28, > 100 µM (inactive); with HOP-62, 64.6 µM (inactive); in the assay with HOP-92, 17.8 µM (inactive); in the assay on NCI-H522 it was 86.9 µM (inactive). For the same compound, the GI50 with RXF 393 is 23.9 µM (inactive); in the assay with SNB-78 it was > 100 µM (inactive); with KM12, > 100 µM (inactive); in the assay on U-251, 71.3 µM (inactive); with COLO 205, > 100 µM (inactive); in the assay with SK-MEL-2, > 100 µM (inactive).

`COc1c2c(c(OC)c3c(=O)cc(C/C(=N/NC(=O)C[n+]4ccccc4)C(=O)Nc4cc(C)ccc4C)oc13)OCO2`: the GI50 with 786-0, in the assay on DLD-1, in the assay with SK-MEL-28, with HOP-62, in the assay on HOP-92 and with NCI-H522 was > 100 µM (inactive) throughout. Further, the GI50 is > 100 µM (inactive) in the assay on RXF 393; > 100 µM (inactive) in the assay on SNB-78; > 100 µM (inactive) in the assay on KM12; > 100 µM with HCT-15; > 100 µM (inactive) in the assay with U-251; > 100 µM (inactive) with COLO 205. Besides, the GI50 in the assay on SN12C and in the assay on SK-MEL-2 was > 100 µM (inactive) in each case.

For the compound `CN(C)/N=C(/c1nc2ccc([N+](=O)[O-])cc2nc1O)C(O)c1ccco1` (centres undefined), the GI50 in the assay with 786-0 was > 100 µM (inactive); in the assay on DLD-1 it was 84.1 µM (inactive); in the assay with SK-MEL-28 it was > 100 µM (inactive); in the assay on HOP-62, 72.1 µM (inactive); in the assay with HOP-92, > 100 µM (inactive); in the assay with NCI-H522 it was 8.57 µM (inactive). Besides, the GI50 in the assay on RXF 393 is > 100 µM (inactive); in the assay with SNB-78 it was > 100 µM (inactive); in the assay with KM12 it was 34.8 µM (inactive); with SF-295 it was > 100 µM (inactive); with HCT-15, 26.2 µM; in the assay on NCI-H226, > 100 µM (inactive). Besides, the GI50 in the assay on U-251, in the assay with COLO 205 and in the assay with SN12C was > 100 µM (inactive) in each case.

In the case of `CCOc1ccccc1NC(=O)C(=O)c1c(O)c2ccc(O)cc2oc1=O`, the GI50 with 786-0, in the assay with DLD-1, with SK-MEL-28, in the assay on HOP-62, in the assay with NCI-H522 and with RXF 393 was > 100 µM (inactive) each time. For the same compound, the GI50 is > 100 µM (inactive) with SNB-78; > 100 µM (inactive) in the assay with KM12; > 100 µM (inactive) in the assay on SF-295; > 100 µM with HCT-15; > 100 µM (inactive) with NCI-H226; > 100 µM (inactive) in the assay with U-251. The GI50 in the assay with COLO 205, in the assay with SN12C and in the assay with SK-MEL-2 was > 100 µM (inactive) each time.

Regarding `COc1c(CC(C)=O)ccc2c1C(=O)c1ccc(C=O)c(OC(C)=O)c1C2=O`, the GI50 in the assay on 786-0 was 6.32 µM (inactive); in the assay on DLD-1, 3.62 µM (inactive); with SK-MEL-28 it was 11 µM (inactive); in the assay with HOP-92 it was 18.9 µM (inactive); with NCI-H522, 2.15 µM (inactive); with RXF 393 it was 4.09 µM (inactive). The GI50 with SNB-78 was 18.2 µM (inactive); with KM12, 14.6 µM (inactive); with SF-295, 21.2 µM (inactive); with HCT-15, 5.57 µM; in the assay on NCI-H226 it was 15.7 µM (inactive); in the assay with U-251, 13.9 µM (inactive). For the same compound, the GI50 in the assay on COLO 205 was 16.1 µM (inactive); in the assay with SN12C, 12.9 µM (inactive); with SK-MEL-2, 15.2 µM (inactive).

Consider `CC1CN(c2ccc(Cl)cc2)CC(C)OC(=O)O1` (centres undefined), for which the GI50 in the assay with 786-0, with DLD-1, in the assay with SK-MEL-28, in the assay with HOP-62, with HOP-92 and in the assay with NCI-H522 was > 100 µM (inactive) throughout. Also, the GI50 was > 100 µM (inactive) in the assay on RXF 393; > 100 µM (inactive) in the assay with SNB-78; > 100 µM (inactive) with KM12; > 100 µM (inactive) in the assay with SF-295; > 100 µM with HCT-15; > 100 µM (inactive) in the assay with NCI-H226. Also, the GI50 with U-251, in the assay with COLO 205, in the assay on SN12C and in the assay with SK-MEL-2 was > 100 µM (inactive) in each case.

In the case of `Cc1ccc(S(=O)(=O)N/N=C/c2oc(-c3ccncc3)c(-c3ccncc3)c2[N+](=O)[O-])cc1`, the GI50 with 786-0, in the assay with DLD-1, in the assay with SK-MEL-28, with HOP-62, in the assay with NCI-H522 and in the assay on RXF 393 was > 100 µM (inactive) throughout. Also, the GI50 in the assay on SNB-78 was > 100 µM (inactive); with KM12, > 100 µM (inactive); in the assay with SF-295, > 100 µM (inactive); with HCT-15, > 100 µM; with NCI-H226, > 100 µM (inactive); in the assay with U-251 it was > 100 µM (inactive). Moreover, the GI50 in the assay on COLO 205, in the assay on SN12C and in the assay with SK-MEL-2 was > 100 µM (inactive) throughout.

With `Clc1ccc(OCc2nnc3n2N=C(c2ccc(Br)cc2)CS3)cc1`, the GI50 in the assay on 786-0 is 16.4 µM (inactive); in the assay with DLD-1 it was > 10 µM (inactive); with SK-MEL-28, 28 µM (inactive); in the assay with HOP-62, 9.82 µM (inactive); in the assay with HOP-92 it was 11.2 µM (inactive); in the assay with NCI-H522, 7.1 µM (inactive). Besides, the GI50 was 12.1 µM (inactive) with RXF 393; 21.5 µM (inactive) with SNB-78; 80.7 µM (inactive) with KM12; 15.8 µM (inactive) with SF-295; 51.3 µM in the assay on HCT-15; 53.1 µM (inactive) with NCI-H226. The GI50 in the assay on U-251 was 30.7 µM (inactive); in the assay with SN12C it was 52.8 µM (inactive); in the assay with SK-MEL-2, 23.4 µM (inactive).

With `C=CCO[C@H]1CC[C@@]2(C)C(CC[C@]3(C)C2CC=C2[C@@H]4[C@@H](C)C(C)CC[C@]4(C(=O)O)CCC23C)C1(C)C` (some centres undefined), the GI50 is 15.7 µM (inactive) with 786-0; 17.3 µM (inactive) in the assay with DLD-1; 15.6 µM (inactive) in the assay on SK-MEL-28; 22.1 µM (inactive) in the assay with HOP-62; 16.3 µM (inactive) in the assay with HOP-92; 13.2 µM (inactive) in the assay on NCI-H522. Besides, the GI50 is 6.05 µM (inactive) in the assay with RXF 393; 17.6 µM (inactive) in the assay with SNB-78; 16.1 µM (inactive) in the assay with KM12; 14.2 µM (inactive) in the assay with SF-295; 18.6 µM (inactive) in the assay on NCI-H226; 16.1 µM (inactive) in the assay with U-251. For the same compound, the GI50 in the assay with COLO 205 is 16 µM (inactive); in the assay on SN12C, 13.6 µM (inactive).

For the compound `CCCCCC(=O)N[C@H]1CCc2cc(OC)c(OC)c(OC)c2-c2ccc(SC)c(=O)cc21`, the GI50 is 0.0335 µM (active) in the assay on 786-0; < 0.01 µM (active) in the assay on DLD-1; 0.0223 µM (active) with SK-MEL-28; 0.032 µM (active) in the assay with HOP-62; < 0.01 µM (active) in the assay on HOP-92; 0.00419 µM (active) in the assay with SNB-78. Further, the GI50 is < 0.01 µM (active) with KM12; 0.0155 µM (active) in the assay with SF-295; 0.0209 µM in the assay on HCT-15; < 0.01 µM (active) in the assay with NCI-H226; 0.0224 µM (active) in the assay with U-251; 0.0122 µM (active) with COLO 205. Also, the GI50 with SN12C is 0.0315 µM (active).
